# Data: ChEMBL document CHEMBL5108002, “Design, synthesis, and biological evaluation of novel 7-substituted 10,11-methylenedioxy-camptothecin derivatives against drug-resistant small-cell lung cancer in vitro and in vivo” (Eur J Med Chem, 2022)
# Activity calls are given as the source filed them. No cut-off for these calls is given here.
# Experiments:
# H69AR [1] = assay: Induction of apoptosis in human NCI-H69AR cells assessed as increase in cleaved-PARP protein expression at 0.1 to 100 nM measured after 24 hrs by Western blot analysis; assay type: functional, cell-based; settings: dose 0.1-100 nM
# H69AR [2] = assay: Induction of apoptosis in human NCI-H69AR cells assessed as dead cells at 100 nM incubated for 24 hrs by AnnexinV-FITC/PI staining based flow cytometry analysis (reference value: 1.92 %); assay type: functional
# SH-SY5Y = assay: Antiproliferative activity against human SH-SY5Y cells assessed as inhibition of cell growth incubated for 72 hrs by SRB assay; assay type: functional, cell-based
# U-87 MG = assay: Antiproliferative activity against human U87 cells assessed as inhibition of cell growth incubated for 72 hrs by SRB assay; assay type: functional, cell-based, U-87MG ATCC
# NCI-H446 [3] = assay: Antitumor activity against Irinotecan-resistant human NCI-H446 cells xenografted in BALB/c nude mouse assessed as tumor weight at 3 mg/kg, IG administered once a week and measured 3 times a week for 35 days; assay type: functional; settings: time 35 day
# NCI-H446 [4] = assay: Induction of apoptosis in human NCI-H446 cells assessed as late apoptotic cells at 10 nM incubated for 24 hrs by AnnexinV-FITC/PI staining based flow cytometry analysis (reference value: 0.37 %); assay type: functional
# H69AR [5] = assay: Induction of apoptosis in human NCI-H69AR cells assessed as early apoptotic cells at 1 nM incubated for 24 hrs by AnnexinV-FITC/PI staining based flow cytometry analysis (reference value: 0.35 %); assay type: functional
# H69AR [6] = assay: Induction of apoptosis in human NCI-H69AR cells assessed as late apoptotic cells at 10 nM incubated for 24 hrs by AnnexinV-FITC/PI staining based flow cytometry analysis (reference value: 2.99 %); assay type: functional
# NCI-H69 [7] = assay: Induction of apoptosis in human NCI-H69 cells assessed as reduction in XIAP mRNA expression at 0.1 to 100 nM incubated for 24 hrs by RT-PCR analysis; assay type: functional, cell-based; settings: dose 0.1-100 nM
# [8] = Toxicity in BALB/c nude mouse xenografted with human NCI-H446 cells assessed as reduction in body weight at high dose administered intragastrically once a week for 28 days and measured three times a week; settings: in vivo, po, 672 h, route ig, time 28 day
# NCI-H69 [9] = assay: Induction of apoptosis in human NCI-H69 cells assessed as reduction in Bcl-2 mRNA expression at 0.1 to 100 nM incubated for 24 hrs by RT-PCR analysis; assay type: functional, cell-based; settings: dose 0.1-100 nM
# NCI-H69 [10] = assay: Induction of apoptosis in human NCI-H69 cells assessed as inhibition of XIAP protein expression at 0.1 to 100 nM incubated for 24 hrs by Western blot analysis; assay type: functional, cell-based; settings: dose 0.1-100 nM
# NCI-H446 [11] = assay: Induction of apoptosis in human NCI-H446 cells assessed as late apoptotic cells at 0.1 nM incubated for 24 hrs by AnnexinV-FITC/PI staining based flow cytometry analysis (reference value: 0.37 %); assay type: functional
# H69AR [12] = assay: Induction of apoptosis in human NCI-H69AR cells assessed as early apoptotic cells at 10 nM incubated for 24 hrs by AnnexinV-FITC/PI staining based flow cytometry analysis (reference value: 0.35 %); assay type: functional
# H69AR [13] = assay: Induction of apoptosis in human NCI-H69AR cells assessed as reduction in Bcl-2 mRNA expression at 0.1 to 100 nM incubated for 24 hrs by RT-PCR analysis; assay type: functional, cell-based; settings: dose 0.1-100 nM
# H69AR [14] = assay: Induction of apoptosis in human NCI-H69AR cells assessed as reduction in Mcl-1 mRNA expression at 0.1 to 100 nM incubated for 24 hrs by RT-PCR analysis; assay type: functional, cell-based; settings: dose 0.1-100 nM
# NCI-H69 [15] = assay: Induction of apoptosis in human NCI-H69 cells assessed as reduction in survivin mRNA expression at 0.1 to 100 nM incubated for 24 hrs by RT-PCR analysis; assay type: functional, cell-based; settings: dose 0.1-100 nM
# H69AR [16] = assay: Induction of apoptosis in human NCI-H69AR cells assessed as inhibition of survivin protein expression at 0.1 to 100 nM incubated for 24 hrs by Western blot analysis; assay type: functional, cell-based; settings: dose 0.1-100 nM
# NCI-H446 [17] = assay: Induction of apoptosis in human NCI-H446 cells assessed as dead cells at 1 nM incubated for 24 hrs by AnnexinV-FITC/PI staining based flow cytometry analysis (reference value: 0.22 %); assay type: functional
# [18] = Resistance index, ratio of IC50 for antiproliferative activity against etoposide/cisplatin combination-resistant human NCI-H446 cells to IC50 for antiproliferative activity against human NCI-H446 cells; assay type: functional
# NCI-H446 [19] = assay: Antitumor activity against human NCI-H446 cells xenografted in BALB/c nude mouse assessed as tumor growth inhibition at 3 mg/kg, IG administered once a week for 28 days by electronic caliper method relative to control; assay type: functional; settings: NCI-H446, po, 672 h, time 28 day, read-out: TGI
# NCI-H446 [20] = assay: Induction of apoptosis in human NCI-H446 cells assessed as dead cells at 0.1 nM incubated for 24 hrs by AnnexinV-FITC/PI staining based flow cytometry analysis (reference value: 0.22 %); assay type: functional
# NCI-H446 [21] = assay: Induction of apoptosis in human NCI-H446 cells assessed as increase in cleaved-caspase 3 protein expression at 0.1 to 100 nM measured after 24 to 48 hrs by Western blot analysis; assay type: functional, cell-based; settings: dose 0.1-100 nM, time 24-48 hrs
# H69AR [22] = assay: Induction of apoptosis in human NCI-H69AR cells assessed as reduction in survivin mRNA expression at 0.1 to 100 nM incubated for 24 hrs by RT-PCR analysis; assay type: functional, cell-based; settings: dose 0.1-100 nM
# [23] = Resistance index, ratio of IC50 for antiproliferative activity against Irinotecan-resistant human NCI-H446 cells to IC50 for antiproliferative activity against human NCI-H446 cells; assay type: functional
# H69AR [24] = assay: Induction of apoptosis in human NCI-H69AR cells assessed as dead cells at 10 nM incubated for 24 hrs by AnnexinV-FITC/PI staining based flow cytometry analysis (reference value: 1.92 %); assay type: functional
# H69AR [25] = assay: Induction of apoptosis in human NCI-H69AR cells assessed as late apoptotic cells at 100 nM incubated for 24 hrs by AnnexinV-FITC/PI staining based flow cytometry analysis (reference value: 2.99 %); assay type: functional
# SW-620 = assay: Antiproliferative activity against human SW-620 cells assessed as inhibition of cell growth incubated for 72 hrs by SRB assay; assay type: functional, cell-based; settings: SW-620, 72 h
# HepG2 = assay: Antiproliferative activity against human HepG2 cells assessed as inhibition of cell growth incubated for 72 hrs by SRB assay; assay type: functional, cell-based; settings: HepG2, 72 h
# NCI-H446 [26] = assay: Induction of apoptosis in human NCI-H446 cells assessed as increase in cleaved-PARP protein expression at 0.1 to 100 nM measured after 24 to 48 hrs by Western blot analysis; assay type: functional, cell-based; settings: dose 0.1-100 nM, time 24-48 hrs
# NCI-H446 [27] = assay: Antiproliferative activity against Irinotecan-resistant human NCI-H446 cells assessed as inhibition of cell growth incubated for 72 hrs by SRB assay; assay type: functional, cell-based; settings: NCI-H446, 72 h
# Mus musculus = assay: Downregulation of survivin protein expression in tumor of BALB/c mouse xenografted with human NCI-H446 cells at 0.75 mg/kg, IG administered intragastrically once a week for 28 days by western blot analysis; assay type: functional, organism-based; settings: time 28.0 day
# NCI-H446 [28] = assay: Induction of apoptosis in human NCI-H446 cells assessed as early apoptotic cells at 10 nM incubated for 24 hrs by AnnexinV-FITC/PI staining based flow cytometry analysis (reference value: 3.1 %); assay type: functional
compound,measurement,setting,value
CC[C@@]1(O)C(=O)OCc2c1cc1n(c2=O)Cc2c-1nc1cc3c(cc1c2-c1ccoc1)OCO3,Activity,H69AR [1],Active
same,Activity,H69AR [2],1.47%
same,IC50,SH-SY5Y,7.91 nM
same,IC50,U-87 MG,19.1 nM
same,Activity,NCI-H446 [3],0.15 g
same,Activity,NCI-H446 [4],6.25%
same,Activity,H69AR [5],0.62%
same,Activity,H69AR [6],12.48%
same,Activity,NCI-H69 [7],Active
same,Activity,[8],Toxic
same,Activity,NCI-H69 [9],Active
same,inhibition,NCI-H69 [10],Active
same,Activity,NCI-H446 [11],3.73%
same,Activity,H69AR [12],0.57%
same,Activity,H69AR [13],Active
same,Activity,H69AR [14],Active
same,Activity,NCI-H69 [15],Active
same,inhibition,H69AR [16],Active
same,Activity,NCI-H446 [17],3.79%
same,Ratio IC50,[18],0.63
same,inhibition in vivo at 3 mg/kg,NCI-H446 [19],95.5%
same,Activity,NCI-H446 [20],0.91%
same,Activity,NCI-H446 [21],Active
same,Activity,H69AR [22],Active
same,Ratio IC50,[23],0.64
same,Activity,H69AR [24],1.82%
same,Activity,H69AR [25],32.38%
same,IC50,SW-620,0.11 nM
same,IC50,HepG2,1.42 nM
same,Activity,NCI-H446 [26],Active
same,IC50,NCI-H446 [27],0.5 nM
same,Activity,Mus musculus,Active
same,Activity,NCI-H446 [28],15.81%
